Experimental findings from doi:10.1101/2020.03.04.976639v2 (biorxiv, 2020) are described below.

Assay [1] has as its target T1, PaThiL (P. aeruginosa thiamine monophosphate kinase, ThiL) (Pseudomonas aeruginosa, UniProt Q9HWX7).
T1 sequence (Q9HWX7 1-322): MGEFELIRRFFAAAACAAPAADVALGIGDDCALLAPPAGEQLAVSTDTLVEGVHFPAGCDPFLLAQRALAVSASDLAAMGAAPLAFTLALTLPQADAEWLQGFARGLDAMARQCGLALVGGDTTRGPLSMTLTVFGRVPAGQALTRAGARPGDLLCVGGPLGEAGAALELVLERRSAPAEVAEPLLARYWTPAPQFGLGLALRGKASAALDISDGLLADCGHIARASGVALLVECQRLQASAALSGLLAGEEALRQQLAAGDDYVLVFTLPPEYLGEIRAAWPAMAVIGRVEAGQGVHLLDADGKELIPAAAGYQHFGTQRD
In words: luminescent kinase assay. It is filed as biochemical.

The target in assay [2] is T1, PaThiL (P. aeruginosa thiamine monophosphate kinase, ThiL). The experiment in a line: luminescent kinase assay. Type of assay: biochemical. The note with it: random Bi-Bi fit; TMP 0.78-50 µM; 50 mM Tris-HCl pH 8.0, 5 mM MgCl2, 350 mM KCl.

In assay [1], `O=C(O)Cc1c[nH]c2ccc(O)cc12` [5-hydroxyindolacetic acid] had a Ki of 114 ± 27 µM.
As for `Nc1ncnc2c1ncn2[C@@H]1O[C@H](COP(=O)(O)OP(=O)(O)OP(=O)(O)O)[C@@H](O)[C@H]1O` [ATP], the Km in assay [2] came to 111 ± 8 µM.
